# Measurements as given in patent US11793824B2, “Administration of nicotinamide mononucleotide in the treatment of disease” (Washington University, priority 2013, dated 2023).
# Entries after “also recorded” stand apart in the source; their conditions may differ.
# Columns and labels:
# Nampt = target: T1, Nampt (Mus musculus, UniProt Q99KQ4); experiment: NAD+ levels in neurospheres treated with FK866 with or without NMN; format: cell-based
# T1 construct: endogenous in cells; host or cells: primary neurospheres (NSPCs) from hippocampi of postnatal mice
# Description: NAD+ levels were determined using an HPLC system (Shimadzu) with a Supelco LC-18-T column (15 cm×4.6 cm; Sigma), as described previously (Yoshino et al, 2011).
# FK866 (Hasmann & Schemainda, 2003) (Sigma F8557), EX527 (Peck et al, 2010) (Cayman Chemical 10009798), and AGK2 (Outeiro et al, 2007) (Sigma A8231) were dissolved in DMSO and used to inhibit Nampt, Sirt1, and Sirt2 respectively.
# Neurosphere cultures and culture media were prepared as described by Dasgupta & Gutmann, 2005 and Lu & Ramanan, 2012 with the following minor modifications. Briefly, postnatal hippocampi were dissected in HibernateA (Invitrogen, A12475-01) and trypsinized at 37° C. for 7 m. Cells were mechanically dissociated by pipetting and pelleted by centrifugation (1700 rpm, 7 min). Dissociation medium (0.1% sodium bicarbonate, 15 mM HEPES, 0.5% glucose in HBSS) was used to wash the cells before they were resuspended in growth medium. Growth medium consisted of DMEM:F12 (1:1, Invitrogen 11966-025 and 21700-075, respectively), B27 (Invitrogen, 17504-044), N2 (Invitrogen, 17502-048), Pen/Strep (Invitrogen), epidermal growth factor (EGF, 20 ng/ml, Sigma, E4127), fibroblast growth factor (FGF, 10 ng/mL, R&D Systems, 233-fb), and heparin (Sigma). Cultures were maintained at 37° C. with 5% CO2, and passaged twice before use in experiments. […]
# 661W cone PR cell line = experiment: 661W cone PR cell line: cell death and intracellular NAD under FK866 with or without NMN; format: cell-based, mouse
# Text: The present inventors assessed the physiological importance of NAMPT-mediated NAD biosynthesis in the retina by generating rod cell- and cone cell-specific NAMPT knockout mice. […] Both a and b wave ERG responses were completely depressed as characterized by a total lack of response to all stimuli. […] NMN administration is an effective intervention to treat/prevent retinal degeneration.
# The inventors used a 661W cone PR cell line and treated the cells with the specific pharmacological NAMPT inhibitor FK866 (200 nM). […] Cell death progresses dramatically over the next 20 hours.
# 661W cone cells = experiment: 661W cone cells: oxygen consumption rate measurement assay; format: cell-based, mouse
# Description: There was an abundance of degenerative vacuoles with ingested organelles including mitochondria in rod-CKO mice with no such structures identified in littermate wild type controls. At 3 weeks of age, subtle changes in inner segments could be identified in rod-CKO mice although they were not as dramatic as those seen by 4 weeks (FIG. 35). […] The inventors treated 661W cone cells with NAMPT inhibitor FK866 (200 nM). In the oxygen consumption rate measurement assay, multiple aspects of mitochondrial function were analyzed.
# [1] = Stability of NMN in drinking water; format: physicochemical
# [2] = Age-associated body weight increase, 12 month-long NMN administration; format: in vivo, mouse; conditions: 12 months
# Description: (§1) A 12 month-long NMN administration study using wild-type mice under a regular chow-fed condition was conducted. NMN was administered through drinking water, and two doses of NMN, 100 and 300 mg/kg body weight/day, were tested. […] To assess beneficial and possible adverse effects of NMN, a variety of physiological parameters were periodically monitored, including body weight, body temperature, food and water intake, fed and fasted blood glucose levels, fed and fasted plasma lipid panels, and glucose and insulin tolerance, in NMN-administered and control mice. Blood chemistry, blood cell counts, urine strip test, and other physiological tests including physical activity test were also checked.
# In these experiments, NMN was administered to mice at a dosage rate of 100 mg/kg per day or 300 mg/kg per day. […] The results were analyzed with two-way RANOVA and one-way RANOVA with the unweighted linear term. All values are presented as mean±SEM (n=15, 14, and 14 for control, 100, and 300 mg/kg NMN-administered groups).
# [3] = Tear production, modified Schirmer's test; format: in vivo, mouse
# Description: as §1
# In this long-term NMN administration study (See Methods; Administration of NMN through Drinking Water and Determination of NMN Stability and Toxicity), tear production was assessed in control and NMN-administered mice with modified Schirmer's test. All values are presented as mean±SEM. **p<0.01.
# [4] = system: Nampt Ad-Cre infected NSPCs; experiment: Nampt Ad-Cre infected neurospheres with or without NMN: NAD+, proliferation, differentiation; format: cell-based, mouse
# Description: NAD+ levels were determined using an HPLC system (Shimadzu) with a Supelco LC-18-T column (15 cm×[…]; Sigma), as described previously (Yoshino et al, 2011).
# Neurospheres derived from Nampt^flox/flox mice were infected with Ad5 Cre recombinase- or b-galactosidase-expressing (LacZ, control) adenoviruses at an MOI of 100. All assessments were performed at least 6 days post infection.
# Neurospheres derived from Nampt^flox/flox mice were dissociated by trypsin digestion and seeded at similar cell densities in 24-well plates with fresh growth medium. Every 24 hours, neurospheres from triplicate wells were collected, dissociated, and counted on a hemocytometer using 0.2% trypan blue exclusion to distinguish viable cells. For analysis of neurosphere diameter, the largest neurosphere in each well was imaged (20× objective) and the diameter was calculated using ImageJ. For secondary neurosphere analysis, the total number of neurospheres in each well was counted at 7 days post-plating.
# Three to five days after their first passage, neurospheres were trypsinized, washed with dissociation medium, and plated at 150,000 cells per well in 24-well plates in differentiation medium [growth medium without FGF and EGF and with BDNF (5 ng/mL, Peprotech, 450-02) on glass coverslips coated with poly-D-lysine (50 ug/mL; Sigma) and laminin (20 ug/mL; BD Biosciences)]. 6-well plates were coated with poly-D-lysine (20 ug/mL) and laminin (10 ug/mL). […] The percentage of oligodendrocyte precursor cells (OPCs) generated was analyzed after 2 d of differentiation, and the percentage of differentiated oligodendrocytes was analyzed after 6-7 d of differentiation. […]
# Nampt Ad-Cre NSPCs were unable to increase their cell number between 24 and 144 hours of culture. […] Since NSPC self-renewal decisions can also contribute to cell number, the inventors assessed secondary neurosphere formation, an assay that quantifies the ability of neurosphere inhabitant cells to reformulate neurospheres upon dissociation. […]
# T1 sequence (Q99KQ4 whole entry): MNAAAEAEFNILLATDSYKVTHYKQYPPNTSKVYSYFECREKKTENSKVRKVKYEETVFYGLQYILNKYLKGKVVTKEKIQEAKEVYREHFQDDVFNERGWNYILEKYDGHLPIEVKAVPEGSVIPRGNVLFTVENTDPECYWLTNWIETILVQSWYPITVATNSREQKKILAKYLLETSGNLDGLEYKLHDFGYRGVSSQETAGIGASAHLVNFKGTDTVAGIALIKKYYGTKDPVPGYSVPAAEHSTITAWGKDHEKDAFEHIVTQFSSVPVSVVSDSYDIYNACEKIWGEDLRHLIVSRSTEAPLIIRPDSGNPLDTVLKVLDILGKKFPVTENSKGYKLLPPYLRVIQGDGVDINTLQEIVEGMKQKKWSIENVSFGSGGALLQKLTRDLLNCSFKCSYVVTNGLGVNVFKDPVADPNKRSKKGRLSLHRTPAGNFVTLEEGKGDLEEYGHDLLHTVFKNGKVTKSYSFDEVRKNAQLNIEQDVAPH
compound,measurement,setting,value
O=C(/C=C/c1cccnc1)NCCCCC1CCN(C(=O)c2ccccc2)CC1 [FK866],NAD+ levels in neurospheres,"Nampt; FK866 10 nM, 48 hours",4 % of controls
same,intracellular NAD levels,661W cone PR cell line; FK866 200 nM,decrease in intracellular NAD levels
same,cell death of 661W cells,"661W cone PR cell line; FK866 200 nM, after 4 hours of treatment",significant cell death; also recorded: apoptotic cell death
same,maximal respiration,661W cone cells; FK866 200 nM,significantly reduced
"NC(=O)c1ccc[n+]([C@@H]2O[C@H](COP(=O)([O-])O)[C@@H](O)[C@H]2O)c1 [NMN, nicotinamide mononucleotide]",stability of NMN in drinking water,[1]; in solution,stable in solution
same,degradation of NMN in drinking water,[1]; room temperature,No significant degradation
same,average percent body weight gain suppression normalized to control mice,[2]; 100 mg/kg group,12%
same,average percent body weight reduction normalized to control mice,[2]; 100 mg/kg group,4%
same,average percent body weight gain suppression normalized to control mice,[2]; 300 mg/kg group,30%
same,average percent body weight reduction normalized to control mice,[2]; 300 mg/kg group,9%
same,tear production,[3]; 300 mg/kg group,comparable to the maximal tear production through the mouse lifespan
same,tear production,"[3]; 18 month-old mice, 100 and 300 mg/kg",increased tear production in a dose-dependent manner
same,rescue of FK866-induced decrease of NAD+ levels,Nampt; concurrent NMN 100 μM with FK866 10 nM,completely rescued
same,rescue of reduction in NAD+ levels in Nampt Ad-Cre NSPCs,"[4]; NMN 100 μM, 48 hours, eight days post deletion",rescued
same,proliferative potential of Nampt Ad-Cre cells,[4]; NMN 200 μM,fully reactivate
same,"defects in differentiation (oligodendrogenesis, Nestin+ retention) of Nampt Ad-Cre NSPCs","[4]; treatment with NMN, 6-7 days of differentiation",rescued defects in oligodendrogenesis
same,NAD levels under FK866,661W cone PR cell line; NMN 100 μM with FK866,restore NAD to normal levels
same,rescue from FK866-mediated cell death,661W cone PR cell line; NMN 100 μM with FK866,completely rescue; also recorded: successfully rescued
same,effects of FK866 on mitochondrial function,661W cone cells; NMN treatment with FK866,completely reverse
